From patent US20240424010A1, “NICOTINAMIDE RIBOSIDE TRIOLEATES CHLORIDE, COMPOSITIONS CONTAINING THIS COMPOUND, AND METHODS OF MAKING AND USING THIS COMPOUND” (SOCIETE DES PRODUITS NESTLE S.A., priority 2021, published 2024) come the findings set out here.

The subject of the data set is porcine pancreatin. On the procedure: In vitro digestion of NRTOCl in pure form and dissolved in MCT oil was investigated in the following procedures.
The buffer for simulated intestinal phase was prepared according to the following protocol.^29 Specifically, 60 mg of NRTOCl was dissolved in 0.3 mL ethanol and added to 10 g of a buffer solution containing 400 mg bile bovine. 0.75 mL of a CaCl2 solution (0.3 M) was added to this mixture, and the pH was adjusted around 7 by using HCl (1 M). Then, 400 mg of fresh porcine pancreatin was dispersed in 4 mL of buffer solution and added to the mixture. The sample was placed in an incubator (250 rpm) at 37°° C. for 30 minutes. Subsequently, the sample was taken out of the incubator to adjust the pH to around 7 and returned to the incubator for another 30 minutes. The incubation steps and adjusting pH were repeated every 30 minutes until 2 hours were over. For quenching the enzyme, the sample was placed in an ice bath, and then 1.5 mL of the sample was centrifuged at 14,000 rpm for 10 minutes. Finally, the aqueous phase was separated and filtered by a 0.22 μm filter for determination of released NR and nicotinamide.
60 mg of NRTOCl was dissolved in 150 mg of MCT oil to prepare 29% w/w NRTO in MCT oil. Aqueous phase was 10 g of the buffer solution containing 400 mg bile bovine. The oil phase was added to the aqueous phase and homogenized at […] for 150 seconds at room temperature. 0.75 mL of a CaCl2 solution (0.3 M) was added to this mixture, and the pH was adjusted around 7 by using HCl (1 M). Then, 400 mg of fresh porcine pancreatin was dispersed in 5 mL of buffer solution and added to the mixture. The sample was placed in an incubator (250 rpm) at 37° C. for 30 minutes. Then, the sample was taken out of the incubator to adjust the pH to around 7 (by NaOH 1 M) and returned to the incubator for another 30 minutes. The incubating and adjusting pH steps were repeated every 30 minutes until 2 hours were over. For quenching the enzyme, the sample was placed in an ice bath and then 1.5 mL of the sample was centrifuged at 14000 rpm for 10 min. Finally, the aqueous phase was separated and filtered by a 0.22 μm filter for determination of released NR and nicotinamide.
After the NRTOCl stability study in different conditions, the digestibility of this compound to produce NR in simulated intestinal fluid was studied. This enzymatic digestion used porcine pancreatin, bile bovine, and a buffer solution at pH around 7.^29 The lipase enzyme in porcine pancreatin can hydrolyze the fatty ester groups to produce NR, NRDO (nicotinamide riboside dioleates), NRMO (nicotinamide riboside monoleate) and oleic acid as the main products of digestion (FIG. 16). Moreover, nicotinamide (NAM) and ribose-trioleates (RTO) can be formed as the products of hydrolysis of NRTO not digestion. By considering this hypothesis, the NRTO digestion was studied in simulated intestinal phase.
At first, the digestion study was followed by dissolving pure NRTOCl (60 mg) in 0.3 mL of ethanol, and then this solution was added to 10 mL of buffer solution containing 400 mg of bile bovine to disperse NRTO in bile bovine solution. After that, 0.75 mL of CaCl2 solution (0.3M) was added to this mixture, and the pH was adjusted to 7.0 by adding HCl (1 M). […] The released NR and nicotinamide from the sample was measured by LC-MS and HPLC analyses.

As to `CCCCCCCC/C=C\CCCCCCCC(=O)OC[C@H]1O[C@@H]([n+]2cccc(C(N)=O)c2)[C@H](OC(=O)CCCCCCC/C=C\CCCCCCCC)[C@@H]1OC(=O)CCCCCCC/C=C\CCCCCCCC.[Cl-]` [NRTOCl, nicotinamide riboside trioleates chloride], the NRTO completely digested result is “at least 27.5%”, the “digestibility to release NR” value is reported as “digestible”, the “nicotinamide detected (N-glycosidic bond hydrolysis) during digestion” value came out at 3.9% and the “nicotinamide measured (N-glycosidic bond hydrolysis) during digestion” value amounted to 2.4%. The “ribose-trioleates formed during digestion” value is 2.4%.
